Test system: 422866-222-R5-J1-PDC complex spheroid viability
Assay: Anticancer human tumor 422866-222-R5-J1-PDC patient-derived pancreatic adenocarcinoma cell line growth inhibition [POLQ]
Conditions: for IC50: curve of first compound; for viability, T/C: stronger effect = lower value
Outline: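 Three-cell-type spheroids modelling solid tumor plus stroma served as the readout system; POL inhibitors were tested individually and in combination, concentration ranges set by clinical Cmax where known.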

[1] = second compound 0.0316 µM, first compound 0.0316 µM
[2] = second compound 0.0316 µM, first compound 0.1 µM
[3] = second compound 0.0316 µM, first compound 0.316 µM
[4] = second compound 0.0316 µM, first compound 1 µM
[5] = second compound 0.0316 µM, first compound 3.16 µM
[6] = second compound 0.0316 µM, first compound 10 µM
[7] = second compound 0.1 µM, first compound 0.0316 µM
[8] = second compound 0.1 µM, first compound 0.1 µM
[9] = second compound 0.1 µM, first compound 0.316 µM
[10] = second compound 0.1 µM, first compound 1 µM
[11] = second compound 0.1 µM, first compound 3.16 µM
[12] = second compound 0.1 µM, first compound 10 µM
[13] = second compound 0.316 µM, first compound 0.0316 µM
[14] = second compound 0.316 µM, first compound 0.1 µM
[15] = second compound 0.316 µM, first compound 0.316 µM
[16] = second compound 0.316 µM, first compound 1 µM
[17] = second compound 0.316 µM, first compound 3.16 µM
[18] = second compound 0.316 µM, first compound 10 µM
[19] = second compound 1 µM, first compound 0.0316 µM
[20] = second compound 1 µM, first compound 0.1 µM
[21] = second compound 1 µM, first compound 0.316 µM
[22] = second compound 1 µM, first compound 1 µM
[23] = second compound 1 µM, first compound 3.16 µM
[24] = second compound 1 µM, first compound 10 µM
[25] = second compound 3.16 µM, first compound 0.0316 µM
[26] = second compound 3.16 µM, first compound 0.1 µM
[27] = second compound 3.16 µM, first compound 0.316 µM
[28] = second compound 3.16 µM, first compound 1 µM
[29] = second compound 3.16 µM, first compound 3.16 µM
[30] = second compound 3.16 µM, first compound 10 µM
[31] = second compound 10 µM, first compound 0.0316 µM
[32] = second compound 10 µM, first compound 0.1 µM
[33] = second compound 10 µM, first compound 0.316 µM
[34] = second compound 10 µM, first compound 1 µM
[35] = second compound 10 µM, first compound 3.16 µM
[36] = second compound 10 µM, first compound 10 µM
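Note: spheroids exposed to compounds for one week before readout.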
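Throughout, for viability, T/C: percent of DMSO vehicle wells luminescence so 100% = untreated viability.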

CNCc1ccc(-c2[nH]c3cc(F)cc4c3c2CCNC4=O)cc1 + COC1C(OC(N)=O)C(O)C(Oc2ccc3c(O)c(NC(=O)c4ccc(O)c(CC=C(C)C)c4)c(=O)oc3c2C)OC1(C)C
IC50 (second compound 0.0316 µM): > 10 µM
IC50 (second compound 0.1 µM): > 10 µM
IC50 (second compound 0.316 µM): > 10 µM
IC50 (second compound 1 µM): > 10 µM
IC50 (second compound 3.16 µM): > 10 µM
IC50 (second compound 10 µM): > 10 µM
viability, T/C [1]: 96.6%
viability, T/C [2]: 97.2%
viability, T/C [3]: 75.3%
viability, T/C [4]: 97.3%
viability, T/C [5]: 83.4%
viability, T/C [6]: 105%
viability, T/C [7]: 124%
viability, T/C [8]: 109%
viability, T/C [9]: 104%
viability, T/C [10]: 99.1%
viability, T/C [11]: 76.7%
viability, T/C [12]: 95%
viability, T/C [13]: 99.5%
viability, T/C [14]: 101%
viability, T/C [15]: 98.2%
viability, T/C [16]: 83%
viability, T/C [17]: 92%
viability, T/C [18]: 95.1%
viability, T/C [19]: 116%
viability, T/C [20]: 104%
viability, T/C [21]: 101%
viability, T/C [22]: 92.9%
viability, T/C [23]: 96.8%
viability, T/C [24]: 99%
viability, T/C [25]: 93%
viability, T/C [26]: 101%
viability, T/C [27]: 92.9%
viability, T/C [28]: 71.7%
viability, T/C [29]: 83.5%
viability, T/C [30]: 99%
viability, T/C [31]: 96.8%
viability, T/C [32]: 102%
viability, T/C [33]: 100%
viability, T/C [34]: 90%
viability, T/C [35]: 103%
viability, T/C [36]: 90.2%

O=c1[nH]cc(F)c(=O)[nH]1 + COC1C(OC(N)=O)C(O)C(Oc2ccc3c(O)c(NC(=O)c4ccc(O)c(CC=C(C)C)c4)c(=O)oc3c2C)OC1(C)C
IC50 (second compound 0.0316 µM): > 10 µM
IC50 (second compound 0.1 µM): > 10 µM
IC50 (second compound 0.316 µM): > 10 µM
IC50 (second compound 1 µM): > 10 µM
IC50 (second compound 3.16 µM): > 10 µM
IC50 (second compound 10 µM): > 10 µM
viability, T/C [1]: 103%
viability, T/C [2]: 99.7%
viability, T/C [3]: 102%
viability, T/C [4]: 98.9%
viability, T/C [5]: 82.7%
viability, T/C [6]: 78.5%
viability, T/C [7]: 109%
viability, T/C [8]: 116%
viability, T/C [9]: 99.7%
viability, T/C [10]: 82.9%
viability, T/C [11]: 82.5%
viability, T/C [12]: 79%
viability, T/C [13]: 109%
viability, T/C [14]: 105%
viability, T/C [15]: 93.5%
viability, T/C [16]: 92.1%
viability, T/C [17]: 84.8%
viability, T/C [18]: 84%
viability, T/C [19]: 107%
viability, T/C [20]: 108%
viability, T/C [21]: 93.2%
viability, T/C [22]: 90.5%
viability, T/C [23]: 72.2%
viability, T/C [24]: 80.8%
viability, T/C [25]: 98%
viability, T/C [26]: 94.1%
viability, T/C [27]: 102%
viability, T/C [28]: 89.2%
viability, T/C [29]: 81.8%
viability, T/C [30]: 82.5%
viability, T/C [31]: 103%
viability, T/C [32]: 98%
viability, T/C [33]: 99.9%
viability, T/C [34]: 79.9%
viability, T/C [35]: 77.7%
viability, T/C [36]: 81.4%

Cn1ncnc1[C@H]1c2n[nH]c(=O)c3cc(F)cc(c23)N[C@@H]1c1ccc(F)cc1 + Cc1cccc(N(C)C(=O)C2C(O)CCN2c2nc(C)cc(C(F)(F)F)c2C#N)c1
IC50 (second compound 0.0316 µM): > 0.1 µM
IC50 (second compound 0.1 µM): > 0.1 µM
IC50 (second compound 0.316 µM): > 0.1 µM
IC50 (second compound 1 µM): > 0.1 µM
IC50 (second compound 3.16 µM): > 0.1 µM
IC50 (second compound 10 µM): > 0.1 µM
viability, T/C (second compound 0.0316 µM, first compound 0.000316 µM): 93.3%
viability, T/C (second compound 0.0316 µM, first compound 0.001 µM): 97.3%
viability, T/C (second compound 0.0316 µM, first compound 0.00316 µM): 93.7%
viability, T/C (second compound 0.0316 µM, first compound 0.01 µM): 89%
viability, T/C [1]: 76.5%
viability, T/C [2]: 82.1%
viability, T/C (second compound 0.1 µM, first compound 0.000316 µM): 116%
viability, T/C (second compound 0.1 µM, first compound 0.001 µM): 95.2%
viability, T/C (second compound 0.1 µM, first compound 0.00316 µM): 90%
viability, T/C (second compound 0.1 µM, first compound 0.01 µM): 93.2%
viability, T/C [7]: 81.8%
viability, T/C [8]: 65.9%
viability, T/C (second compound 0.316 µM, first compound 0.000316 µM): 108%
viability, T/C (second compound 0.316 µM, first compound 0.001 µM): 97.3%
viability, T/C (second compound 0.316 µM, first compound 0.00316 µM): 90.6%
viability, T/C (second compound 0.316 µM, first compound 0.01 µM): 88.4%
viability, T/C [13]: 81.4%
viability, T/C [14]: 83.1%
viability, T/C (second compound 1 µM, first compound 0.000316 µM): 93.9%
viability, T/C (second compound 1 µM, first compound 0.001 µM): 90.2%
viability, T/C (second compound 1 µM, first compound 0.00316 µM): 93.6%
viability, T/C (second compound 1 µM, first compound 0.01 µM): 89%
viability, T/C [19]: 79.3%
viability, T/C [20]: 77.2%
viability, T/C (second compound 3.16 µM, first compound 0.000316 µM): 95.6%
viability, T/C (second compound 3.16 µM, first compound 0.001 µM): 101%
viability, T/C (second compound 3.16 µM, first compound 0.00316 µM): 94.2%
viability, T/C (second compound 3.16 µM, first compound 0.01 µM): 77.3%
viability, T/C [25]: 87.4%
viability, T/C [26]: 91.9%
viability, T/C (second compound 10 µM, first compound 0.000316 µM): 95.1%
viability, T/C (second compound 10 µM, first compound 0.001 µM): 97.7%
viability, T/C (second compound 10 µM, first compound 0.00316 µM): 102%
viability, T/C (second compound 10 µM, first compound 0.01 µM): 72.5%
viability, T/C [31]: 82.9%
viability, T/C [32]: 83.2%

Reference: PubChem BioAssay AID1963844 (Molecular Pharmacology Branch, DTP, NCI, 2024)
